In patent US4877779A, “2-aminomethylalkynylalkyl-1,3-dithiane derivatives” (priority 1988, dated 1989):
Structures can show the parent of a compound that is named as a salt. Where two headings read alike, the source gives them in different places.

Experiments:
[1] = tested on: Serotonin-Induced Diarrhea in Mice; assay: Inhibition of Serotonin-Induced Diarrhea in Mice; format: in vivo, Male CF1 mice; details: Mus musculus, ip, 0.5 h, read-out: ED50 (95% confidence limits)
Description: Inhibition of Serotonin-Induced Diarrhea in Mice.
. The mice were weighed and an average weight was used to calculate the amount of drug to be administered. Drugs were prepared in isotonic saline or an appropriate vehicle at varying concentrations and were administered intraperitoneally. Control animals were given vehicles without any test drug. Serotonin was given intraperitoneally (i.p.) in all cases 30 minutes after i.p. administration of test drug. Mice were placed in individual cages containing racks and paper liners with free access to water. Mice were observed after 30 minutes, 60 minutes and 180 minutes and graded for presence or absence of diarrhea. The grading system consisted of positive (+), negative (-) and (±) based on consistency and liquid staining. The ED50 (effective dose in 50% of population) was calculated for each test drug using the method of Litchfield-Wilcoxin. […]

[2] = tested on: substance P-induced Cl- ion secretion by guinea-pig isolated ileal mucosa; format: cell-based; details: antagonist 5 μM serosal and mucosal, 5 minutes prior to substance P (1 μM)
Description: Inhibition of Ileal Secretion.
This technique involves the measurement of Cl- ion secretion by guinea-pig isolated ileal mucosa, and provides a method for assessing the effect of drugs on intestinal electrolyte and water secretion. […] Cl- ion secretion in vitro, which is Ca^2+ -dependent, is quantitated as changes in electrical current (Isc) under short-circuited conditions.
Male Hartley guinea-pigs weighing 200-400 g were maintained on a standard laboratory diet with free access to food and water prior to sacrifice by decapitation. An approximately 15 cm segment of proximal ileum was removed and stripped of its underlying longitudinal muscle by blunt dissection. Four adjacent tissues were each mounted as flat sheets between Ussing chambers (two lucite half-chambers, exposed area=0.64 cm^2) and bathed on both sides by a physiological salt solution circulated by gas lift, and maintained at a pH of 7.4.
Electrical measurements were monitored with an automatic voltage clamp (World Precision Instruments, model DVC-1000). Two calomel electrodes with 4% agar Krebs Bicarbonate Ringer bridges were used to measure the transepithelial potential difference (PD) across the isolated mucosa. […] The Isc was recorded on a Gould chart recorder. […]

[3] = target: T1, calcium channel (guinea-pig isolated ileal longitudinal smooth muscle) (Cavia porcellus, UniProt O35505); assay: Calcium Channel Antagonist Activity in Guinea-Pig Isolated Ileal Smooth Muscle; format: cell-based
T1 construct: The longitudinal smooth muscle is carefully separated from the underlying circular muscle layer; from tissue; host or cells: guinea-pig ileal longitudinal smooth muscle
T1 sequence (O35505 whole entry): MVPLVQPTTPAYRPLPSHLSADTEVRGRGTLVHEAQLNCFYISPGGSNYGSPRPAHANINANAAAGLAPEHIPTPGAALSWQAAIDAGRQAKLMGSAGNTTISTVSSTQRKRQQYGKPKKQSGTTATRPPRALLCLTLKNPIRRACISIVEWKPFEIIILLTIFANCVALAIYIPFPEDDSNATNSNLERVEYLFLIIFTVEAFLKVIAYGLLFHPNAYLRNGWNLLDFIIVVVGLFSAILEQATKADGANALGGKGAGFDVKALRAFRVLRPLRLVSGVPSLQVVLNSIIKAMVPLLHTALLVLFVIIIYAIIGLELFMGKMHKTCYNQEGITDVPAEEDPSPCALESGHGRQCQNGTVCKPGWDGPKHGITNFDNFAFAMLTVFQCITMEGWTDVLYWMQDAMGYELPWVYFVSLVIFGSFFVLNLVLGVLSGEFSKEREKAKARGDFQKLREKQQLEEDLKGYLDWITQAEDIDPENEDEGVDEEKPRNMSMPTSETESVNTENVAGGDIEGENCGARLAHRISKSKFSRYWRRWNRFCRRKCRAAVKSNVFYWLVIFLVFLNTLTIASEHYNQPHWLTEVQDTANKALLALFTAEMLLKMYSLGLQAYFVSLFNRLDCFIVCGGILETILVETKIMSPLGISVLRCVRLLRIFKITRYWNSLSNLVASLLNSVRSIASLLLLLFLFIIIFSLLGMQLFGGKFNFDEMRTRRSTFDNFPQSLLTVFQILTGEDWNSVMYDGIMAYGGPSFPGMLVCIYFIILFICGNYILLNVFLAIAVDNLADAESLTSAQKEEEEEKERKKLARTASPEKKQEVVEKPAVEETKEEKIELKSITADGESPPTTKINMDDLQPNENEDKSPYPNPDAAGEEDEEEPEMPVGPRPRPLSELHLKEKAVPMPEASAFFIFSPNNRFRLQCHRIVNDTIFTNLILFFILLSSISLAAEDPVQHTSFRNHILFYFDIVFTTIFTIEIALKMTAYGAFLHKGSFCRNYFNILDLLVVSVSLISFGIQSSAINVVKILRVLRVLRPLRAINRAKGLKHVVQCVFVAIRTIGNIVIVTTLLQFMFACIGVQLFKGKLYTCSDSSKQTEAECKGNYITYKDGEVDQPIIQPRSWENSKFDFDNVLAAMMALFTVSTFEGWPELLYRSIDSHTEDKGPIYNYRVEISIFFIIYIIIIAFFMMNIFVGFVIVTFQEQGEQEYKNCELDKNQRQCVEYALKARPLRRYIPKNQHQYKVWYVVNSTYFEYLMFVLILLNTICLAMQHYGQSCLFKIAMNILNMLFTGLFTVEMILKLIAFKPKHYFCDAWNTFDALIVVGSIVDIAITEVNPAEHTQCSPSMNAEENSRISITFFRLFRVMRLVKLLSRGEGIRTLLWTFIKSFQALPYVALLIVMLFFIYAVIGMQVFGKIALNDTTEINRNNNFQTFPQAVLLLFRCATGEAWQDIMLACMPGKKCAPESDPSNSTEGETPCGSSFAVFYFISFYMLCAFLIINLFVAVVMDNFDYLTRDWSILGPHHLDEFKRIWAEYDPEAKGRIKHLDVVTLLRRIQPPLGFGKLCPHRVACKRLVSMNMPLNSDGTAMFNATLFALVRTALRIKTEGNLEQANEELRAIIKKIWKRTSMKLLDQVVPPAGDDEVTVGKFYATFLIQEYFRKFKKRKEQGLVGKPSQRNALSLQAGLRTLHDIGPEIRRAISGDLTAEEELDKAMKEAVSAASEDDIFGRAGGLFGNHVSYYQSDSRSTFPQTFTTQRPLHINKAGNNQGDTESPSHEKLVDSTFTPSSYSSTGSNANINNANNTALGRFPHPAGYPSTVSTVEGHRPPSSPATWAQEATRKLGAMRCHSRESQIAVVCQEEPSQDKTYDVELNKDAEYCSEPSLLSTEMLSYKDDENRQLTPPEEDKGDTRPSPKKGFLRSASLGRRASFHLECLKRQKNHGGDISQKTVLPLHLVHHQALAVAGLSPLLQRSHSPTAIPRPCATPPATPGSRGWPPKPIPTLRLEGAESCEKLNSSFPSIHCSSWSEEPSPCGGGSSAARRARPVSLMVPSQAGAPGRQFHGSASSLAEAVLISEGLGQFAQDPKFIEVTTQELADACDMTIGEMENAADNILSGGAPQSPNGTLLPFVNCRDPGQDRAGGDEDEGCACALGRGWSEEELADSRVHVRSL
Description: Calcium Channel Antagonist Activity in Guinea-Pig Isolated Ileal Smooth Muscle.
Male albino guinea-pigs are sacrificed by stunning and exsanguination. The abdominal cavity is opened and the small intestine is removed, with about 10 cm of the terminal ileum being discarded. The tissue is placed in a dish containing Tyrode's solution (composition, mM: […]; KCl 2.68; NaHCO3 11.90; NaH2 PO4 0.36; MgCl2 0.98; CaCl2 1.77; dextrose 5.55), and cut into three to four segments. A glass rod (6 mm diameter) is carefully inserted into the lumen of each segment, and excess connective tissue or fat is removed. The longitudinal smooth muscle is carefully separated from the underlying circular muscle layer by gently stroking a moist cotton swab on a tangent to shallow, longitudinal incisions made parallel to the mesenteric attachment. Using gentle traction, and taking care to keep the segment moist at all times, the preparation is stripped from the remaining length of the ileal segment (Paton & Zar, J. Physiol. 194, 13; 1968).
Each preparation is suspended in a 10 mL jacketed glass tissue bath containing Tyrode's solution maintained at 37° C. and gassed with 5% CO2 in O2. The preparation is attached by silk thread to a force-displacement transducer. […] The initial resting tension is adjusted to 0.5 g and the preparation equilibrated for 55 minutes prior to experimentation. At the end of this period, the bathing solution is replaced with Ca^2+ -free Tyrode's solution. This solution is prepared by omitting CaCl2. The preparation is washed four times in Ca^2+ -free Tyrode 's to remove any Ca^2+ remaining in the bath, and allowed to equilibrate for a further 20 minutes.
Concentration-response curves to CaCl2 are obtained using the following procedure. Preparations are exposed to a depolarizing concentration of KCl (80 mM) for 6 minutes. At the end of this period CaCl2 is added to the bath cumulatively in the concentration range 0.2-8.0 mM. Successive additions of each Ca^2+ concentration are carried out only when the previous response has reached a plateau. When the maximum response has been attained the bath is again washed (five times) with Ca^2+ -free buffer, and the preparation re-equilibrated for approximately 15 minutes. A second Ca^2+ concentration-response curve is then obtained in the same manner. This second curve serves as control for that tissue.
Further curves are obtained in the presence of increasing concentrations of the test drugs. Where appropriate, the test drug is added to the bath immediately following addition of KCl, and 6 minutes later the concentration-response curve to Ca^2+ is obtained. Each test preparation is exposed to three different concentrations of a test drug.
For each ileal preparation, the control EC50 for Ca^2+ (the concentration producing 50% of the maximum response) is determined from the control concentration-response curve. Calcium blocking activity is defined as a Kb value (the concentration producing a two-fold dextral shift in the control curve), calculated from EC50 ratios in the absence and presence of test drugs.

[4] = i.p., serotonin i.p. 30 minutes after test drug, mice, Litchfield-Wilcoxin
[5] = Kb = concentration producing a two-fold dextral shift in the control CaCl2 concentration-response curve, KCl (80 mM) depolarized ileal smooth muscle, read-out: Calcium antagonist Kb

Compound	Kb [3, 5]	other results
COc1ccc(CCN(C)CCCC(C#N)(c2ccc(OC)c(OC)c2)C(C)C)cc1OC (centres unmarked) [verapamil]	–	ED50 [1, 4]: 13.3 mg/kg
CN(C)C(=O)C(CCN1CCC(O)(c2ccc(Cl)cc2)CC1)(c1ccccc1)c1ccccc1 [loperamide, reference compound]	–	percent inhibition of substance P-induced increase in Isc [2]: 36.1%; ED50 [1, 4]: 0.16 mg/kg
CCN(CC)CC#CCCCC1(C2(O)c3ccccc3Oc3ccccc32)SCCCS1 [2-(6-Diethylaminohex-4-ynyl)-2-(9-hydroxy-9H-xanthen-9-yl)-1,3-dithiane]	170 ± 20 nM	–
CCN(CC)CC#CCCC1SCCCS1 [2-(5-Diethylaminopent-3-ynyl)-1,3-dithiane Oxalate]	> 10000 nM	–
CN(CC#CCCC1SCCCS1)Cc1ccc2ccccc2c1 [2-[5-(2-Naphthylmethyl)methylaminopent-3-ynyl]-1,3-dithiane Oxalate]	8330 ± 2040 nM	–
CCN(CC)CC#CCCC1(C(O)(c2ccccc2)C2CCCC2)SCCCS1 (stereo not drawn) [2-(5-Diethylaminopent-3-ynyl)-2-(α-cyclopentyl-α-hydroxybenzyl-1,3-dithiane Oxalate]	500 nM	–
CN(C)CC#CCCC1SCCCS1 [2-(5-Dimethylaminopent-3-ynyl)-1,3-dithiane Oxalate]	> 10000 nM	–
OCCN1CCN(CC#CCCC2SCCCS2)CC1 [2-[5-[4-(2-Hydroxyethyl)piperazinyl]pent-3-ynyl]-1,3-dithiane Dioxalate]	> 10000 nM	–
CCN(CC)CC#CCCCC1(C2(O)c3ccccc3-c3ccccc32)SCCCS1 [2-(6-Diethylaminohex-4-ynyl)-2-(9-hydroxy-9H-fluoren-9-yl)-1,3-dithiane]	810 ± 220 nM	–
CCN(CC)CC#CCCC1(C2(O)c3ccccc3Oc3ccccc32)SCCCS1 [2-(5-Diethylaminopent-3-ynyl)-2-(9-hydroxy-9H-xanthen-9-yl)-1,3-dithiane]	–	Kb [3]: 156 ± 30 nM; percent inhibition of substance P-induced increase in Isc [2]: 55.2%; ED50 [1]: 20.7 mg/kg
CN(CC#CCCC1SCCCS1)CCc1ccccc1 [2-[5-(2-Phenylethyl)methylaminopent-3-ynyl]-1,3-dithiane Oxalate]	2270 ± 730 nM	–
COc1ccc(CCN(C)CC#CCCC(O)(c2ccccc2)C2SCCCS2)cc1OC (centres unmarked) [2[6-[2-(3,4-dimethoxyphenyl)ethyl]methylamino-1-hydroxy-1-phenylhex-4-ynyl]-1,3-dithiane]	1230 ± 530 nM	–
CCN(C)CC#CCCC1SCCCS1 [2-(5-Ethylmethylaminopent-3-ynyl)-1,3-dithiane Oxalate]	> 10000 nM	–
CCN(CC)CC#CCCC1(C(O)(c2ccccc2)c2ccccc2)SCCCS1 [2-(5-Diethylaminopent-3-ynyl)-2-(α-hydroxy-α-phenylbenzyl)-1,3-dithiane Oxalate]	980 ± 160 nM	–
CN(C)CC#CCCC1(C2(O)c3ccccc3Sc3ccc(Cl)cc32)SCCCS1 (centres unmarked) [2-(5-Dimethylaminopent-3-ynyl)-2-(2-chloro-9-hydroxy-9H-thioxanthen-9-yl)-1,3-dithiane]	2330 ± 180 nM	–
CN(C)CC#CCCC1(C2(O)c3ccccc3Oc3ccccc32)SCCCS1 [2-(5-Dimethylaminopent-3-ynyl)-2-(9-hydroxy-9H-xanthen-9-yl)-1,3-dithiane]	1150 ± 200 nM	–
CN(CC#CCCC1(C(O)(c2ccccc2)c2ccccc2)SCCCS1)CCCc1ccccc1 [2-[5-(3-Phenylpropyl)methylaminopent-3-ynyl]-2-(9-hydroxy-9-phenylbenzyl)-1,3-dithiane Oxalate]	1630 ± 880 nM	–
CCN(CC)CC#CCCC1(c2ccccc2)SCCCS1 [2-(5-Diethylaminopent-3-ynyl)-2-phenyl-1,3-dithiane Oxalate]	900 ± 300 nM	–
CCN(CC)CC#CCCC1(C(O)(c2ccccc2)C2CCCCC2)SCCCS1 (stereo not drawn) [2-(5-Diethylaminopent-3-ynyl)-2-(α-cyclohexyl-α-hydroxybenzyl)-1,3-dithiane Hemioxalate]	1140 ± 21 nM	–
CCN(C)CC#CCCC1(C2(O)c3ccccc3Sc3ccccc32)SCCCS1 [2-(5-Ethylmethylaminopent-3-ynyl)-2-(9-hydroxy-9H-thioxanthen-9-yl)-1,3-dithiane]	570 ± 120 nM	–
CCN(CC)CC#CCCC1(C2(O)c3ccccc3C=Cc3ccccc32)SCCCS1 [2-(5-Diethylaminopent-3-ynyl)-2-(5-hydroxy-5H-dibenzo[a,d]cyclohepten-5-yl)-1,3-dithiane Oxalate]	300 nM	–
CN(CC#CCCCC1SCCCS1)Cc1ccccc1 [2-(6-Benzylmethylaminohex-4-ynyl)-1,3-dithiane Oxalate]	4450 ± 160 nM	–
CCN(CC)CC#CCCC1(C2(O)CCCc3ccccc32)SCCCS1 (centres unmarked) [2-(5-Diethylaminopent-3-ynyl)-2-(1-hydroxy-1,2,3,4-tetrahydro-1-naphthyl)-1,3-dithiane Hemioxalate]	830 ± 20 nM	–
COc1ccc(CCN(C)CC#CCC2(c3ccccc3)SCCCS2)cc1OC [2-[4-[2-(3,4-dimethoxyphenyl)ethyl]methylaminobut-2-ynyl]-2-phenyl-1,3-dithiane oxalate]	1170 ± 350 nM	–
OC1(C2(CCC#CCN3CCCCC3)SCCCS2)c2ccccc2Sc2ccc(Cl)cc21 (centres unmarked) [2-(5-Piperidinylpent-3-ynyl)-2-(2-chloro-9-hydroxy-9H-thioxanthen-9-yl)-1,3-dithiane]	6090 ± 1560 nM	–
CN(CC#CCCC1SCCCS1)Cc1ccccc1 [2-[5-(Benzylmethylaminopent-3-ynyl]-1,3-dithiane Oxalate]	8020 ± 2740 nM	–
